The source of these data is patent US11291201B2, “Solutions for increasing the stability and shelf life of an organ and tissue preservation solution” (Marizyme, Inc., priority 2013, dated 2022).

The conditions of data set [1]: 40° C., Solution B. From the text:
(§1) The values of the exponents in the equation derived from the exponential fit are the first order rate constant k1 (in units of days^−1).

How the values of data set [2] were obtained: The real time stability studies at 5° C. have progressed for about one year thus far.
as §1

Where two headings read alike, the source gives them in different places.

In the case of `N[C@@H](CCC(=O)N[C@@H](CS)C(=O)NCC(=O)O)C(=O)O` [L-glutathione], the “time until product specification for L-glutathione approached its limit of expiration” value in data set [1] is recorded as “approximately 73 days”; in data set [2] (5° C., from first order fit of 12-15 month real time data), “about 100 months”. For the same compound, the “energy of activation for decomposition” value in data set [2] (corresponds to Q10 value of 2.94) amounted to 19.0 kcal/mol.
